Legend:
Format in all cases: cell-based
[1] = system: U‐251 (human glioblastoma cell line); assay: SRB cytotoxicity, U-251 cells; settings: read-out: IC50 U‐251, non-linear regression
[2] = system: MCF‐7 (human mammary adenocarcinoma); assay: SRB cytotoxicity, MCF-7 cells; settings: read-out: IC50 MCF‐7, non-linear regression
[3] = system: SK‐LU‐1 (human lung adenocarcinoma); assay: SRB cytotoxicity, SK-LU-1 cells; settings: read-out: IC50 SK‐LU‐1, non-linear regression

curcumin
IC50 [1]: 20.5 ± 1.7 µM
IC50 [2]: 18.4 ± 0.9 µM
IC50 [3]: 12.9 ± 0.7 µM
